Reference: PMC2621304 (Analytical biochemistry, 2008)

Assays:
Human AhR [1] = target: T1, Human AhR (Homo sapiens, UniProt P35869); assay: Competitive binding assay against [3H]-TCDD, recombinant human AhR
T1 sequence (P35869 11-848): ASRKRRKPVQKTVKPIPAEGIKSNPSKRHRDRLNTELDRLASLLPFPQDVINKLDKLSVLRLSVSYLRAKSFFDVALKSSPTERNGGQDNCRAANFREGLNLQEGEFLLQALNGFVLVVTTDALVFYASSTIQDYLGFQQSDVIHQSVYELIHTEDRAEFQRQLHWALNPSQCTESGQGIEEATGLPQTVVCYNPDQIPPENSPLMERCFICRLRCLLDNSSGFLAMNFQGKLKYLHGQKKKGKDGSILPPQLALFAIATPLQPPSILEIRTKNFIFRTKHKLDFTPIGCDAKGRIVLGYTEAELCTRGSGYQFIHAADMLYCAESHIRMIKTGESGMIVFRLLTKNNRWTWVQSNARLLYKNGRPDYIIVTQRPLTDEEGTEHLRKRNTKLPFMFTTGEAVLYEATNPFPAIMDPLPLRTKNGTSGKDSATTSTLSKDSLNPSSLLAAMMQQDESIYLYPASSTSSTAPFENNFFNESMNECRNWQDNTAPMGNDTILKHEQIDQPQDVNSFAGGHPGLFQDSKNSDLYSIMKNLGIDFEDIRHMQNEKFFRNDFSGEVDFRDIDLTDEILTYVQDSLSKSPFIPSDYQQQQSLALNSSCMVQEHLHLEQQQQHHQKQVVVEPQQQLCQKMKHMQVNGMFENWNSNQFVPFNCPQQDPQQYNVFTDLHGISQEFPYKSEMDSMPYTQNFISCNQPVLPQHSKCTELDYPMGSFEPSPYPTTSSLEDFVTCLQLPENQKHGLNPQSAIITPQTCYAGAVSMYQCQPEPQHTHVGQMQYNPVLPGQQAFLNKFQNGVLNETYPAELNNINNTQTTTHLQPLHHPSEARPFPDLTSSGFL

Rat AhR [2] = target: T2, Rat AhR (Rattus norvegicus, UniProt P41738); assay: Competitive binding assay against [3H]-TCDD, recombinant rat AhR
T2 sequence (P41738 10-853): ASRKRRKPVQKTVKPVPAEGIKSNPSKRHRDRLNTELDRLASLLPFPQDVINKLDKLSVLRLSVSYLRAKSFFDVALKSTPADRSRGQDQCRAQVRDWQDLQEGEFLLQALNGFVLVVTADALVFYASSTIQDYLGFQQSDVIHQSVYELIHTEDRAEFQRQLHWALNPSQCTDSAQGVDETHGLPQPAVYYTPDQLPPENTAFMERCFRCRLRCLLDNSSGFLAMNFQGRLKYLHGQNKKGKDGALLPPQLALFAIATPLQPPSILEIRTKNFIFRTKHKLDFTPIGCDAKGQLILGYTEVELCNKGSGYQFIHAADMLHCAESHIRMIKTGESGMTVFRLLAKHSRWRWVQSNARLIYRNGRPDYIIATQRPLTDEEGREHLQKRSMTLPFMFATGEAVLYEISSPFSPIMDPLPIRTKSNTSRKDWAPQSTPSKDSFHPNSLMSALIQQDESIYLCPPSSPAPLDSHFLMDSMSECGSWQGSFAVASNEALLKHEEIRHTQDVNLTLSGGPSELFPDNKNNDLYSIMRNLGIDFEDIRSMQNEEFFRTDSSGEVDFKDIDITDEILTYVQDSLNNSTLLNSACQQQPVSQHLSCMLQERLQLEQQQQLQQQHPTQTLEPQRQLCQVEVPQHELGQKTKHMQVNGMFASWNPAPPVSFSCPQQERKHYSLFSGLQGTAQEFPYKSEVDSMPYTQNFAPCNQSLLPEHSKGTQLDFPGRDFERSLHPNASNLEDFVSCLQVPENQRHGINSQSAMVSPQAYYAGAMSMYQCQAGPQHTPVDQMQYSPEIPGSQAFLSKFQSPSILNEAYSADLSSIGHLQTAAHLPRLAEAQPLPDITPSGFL

[3] = Solubility of TCDD in protein solution; format: physicochemical; conditions: unpublished data
AhR in rat liver cytosol = target: T3, AhR in rat liver cytosol (Rattus norvegicus, UniProt P41738); assay: [3H]-TCDD saturation binding, rat liver cytosol
T3 sequence (P41738 10-853): T2 sequence (P41738 10-853)

Human AhR [4] = target: T1, Human AhR; assay: [3H]-TCDD saturation binding, recombinant human AhR in Sf9 cytosol; conditions: optimised conditions
Rat AhR [5] = target: T2, Rat AhR; assay: [3H]-TCDD saturation binding, recombinant rat AhR in Sf9 cytosol

Clc1ccc(-c2cc(Cl)c(Cl)c(Cl)c2)cc1Cl [PCB126, polychlorinated biphenyl 126]
Ki (Human AhR [1]): 736 nM
fold less potent as a ligand than TCDD, human AhR (Human AhR [1]; relative to TCDD): ~40 fold
Ki (Rat AhR [2]): 24.7 nM
fold less potent than TCDD, rat AhR (Rat AhR [2]; relative to TCDD): ~50 fold

Clc1cc2oc3c(Cl)c(Cl)c(Cl)cc3c2cc1Cl [2,3,4,7,8-pentachlorodibenzofuran]
Ki (Human AhR [1]): 14.1 nM
potency relative to TCDF and PCDD, human AhR (Human AhR [1]): two-fold less potent
Ki (Rat AhR [2]): 1.5 nM
potency as ligand relative to PCDD, rat AhR (Rat AhR [2]; relative to PCDD): three-fold less potent

Clc1cc2oc3cc(Cl)c(Cl)cc3c2cc1Cl [2,3,7,8-tetrachlorodibenzofuran]
Ki (Human AhR [1]): 6.27 nM
Ki (Rat AhR [2]): 0.36 nM

Clc1cc2c(cc1Cl)Oc1cc(Cl)c(Cl)cc1O2 [TCDD, 2,3,7,8-tetrachlorodibenzo-p-dioxin]
solubility in protein solution [3]: declines dramatically at concentrations much in excess of 2 nM
Kd (AhR in rat liver cytosol; apparent Kd for TCDD, saturation binding, mean ± Standard deviation, n=6): 1 ± 0.45 nM
maximal binding capacity (Bmax) (AhR in rat liver cytosol; per mg cytosolic protein, [3H]-TCDD): 52 fmol/mg
Ki (Human AhR [1]): 15.4 nM
potency relative to TCDF and PCDD, human AhR (Human AhR [1]): two-fold less potent
Kd (Human AhR [4]; Kd for TCDD, human AhR, n=6): 2.77 ± 0.94 nM
Bmax, human AhR (Human AhR [4]; [3H]-TCDD): 0.46±0.12 pmol/mg cytosolic protein
Ki (Rat AhR [2]): 0.55 nM
Kd (Rat AhR [5]; Kd (typical experiment, Fig. 5A), MOI of 0.1, typical experiment): 1.35 nM
Kd (Rat AhR [5]; Kd for TCDD, recombinant rat AhR, MOI of 0.1, n=6 independent determinations): 1.34 ± 0.32 nM
Bmax, recombinant rat AhR (Rat AhR [5]; MOI of 0.1, [3H]-TCDD): 1.5±0.37 pmol/ mg cytosolic protein
Bmax (typical experiment, Fig. 5A) (Rat AhR [5]; MOI of 0.1, typical experiment): 1.83 pmol/mg

Clc1cc2c(cc1Cl)Oc1c(cc(Cl)c(Cl)c1Cl)O2 [1,2,3,7,8-pentachlorodibenzo-p-dioxin]
Ki (Human AhR [1]): 7.62 nM
Ki (Rat AhR [2]): 0.46 nM
